From publication PMC9303812, “Asymmetrically Substituted m‐Terphenyl Phosphates Inhibit the Transcription Factor STAT5a” (Chembiochem, 2021)
Like-named read-outs stand apart in the source and are kept apart here.

Experiments:
STAT6 = molecular target: T1, STAT6 (Homo sapiens, UniProt P42226); test: Fluorescence polarization (FP) binding assay, STAT6
T1 sequence (P42226 1-847): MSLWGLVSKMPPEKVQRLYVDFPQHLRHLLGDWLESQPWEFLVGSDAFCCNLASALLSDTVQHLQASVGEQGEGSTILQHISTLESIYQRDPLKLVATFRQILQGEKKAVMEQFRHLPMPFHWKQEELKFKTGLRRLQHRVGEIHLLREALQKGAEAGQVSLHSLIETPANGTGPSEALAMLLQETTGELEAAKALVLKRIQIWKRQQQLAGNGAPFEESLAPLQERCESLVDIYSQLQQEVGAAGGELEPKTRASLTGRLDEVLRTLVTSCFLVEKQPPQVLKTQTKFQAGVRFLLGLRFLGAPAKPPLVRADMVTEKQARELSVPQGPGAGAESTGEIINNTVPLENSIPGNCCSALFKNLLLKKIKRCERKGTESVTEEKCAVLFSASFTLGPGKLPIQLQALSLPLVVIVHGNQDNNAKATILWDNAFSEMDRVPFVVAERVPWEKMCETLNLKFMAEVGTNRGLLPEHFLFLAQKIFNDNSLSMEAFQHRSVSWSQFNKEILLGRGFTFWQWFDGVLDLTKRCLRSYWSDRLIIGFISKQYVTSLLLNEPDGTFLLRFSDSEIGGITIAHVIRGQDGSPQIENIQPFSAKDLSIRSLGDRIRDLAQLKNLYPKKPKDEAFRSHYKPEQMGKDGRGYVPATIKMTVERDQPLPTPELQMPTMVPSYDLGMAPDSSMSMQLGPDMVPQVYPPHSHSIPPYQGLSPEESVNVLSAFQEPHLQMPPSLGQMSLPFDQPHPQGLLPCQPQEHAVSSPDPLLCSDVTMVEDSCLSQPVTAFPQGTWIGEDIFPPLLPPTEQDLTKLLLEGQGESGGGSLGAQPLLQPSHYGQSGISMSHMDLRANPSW
Protocol: (§1) Ki values were calculated from IC50 values using the published equation.[2] […]
(§2) Table S2: Activities of 12 against STAT5 proteins in FP assays.
(§3) Fluorescence polarization assays
(§4) Fluorescence polarization assays were essentially carried out as previously described.[1] These assays quantitate to which extent a test compound is able to interfere with binding between a STAT protein and a fluorescein-labeled phosphotyrosine-containing peptide, which is known to bind to the SH2 domain of the respective STAT protein. The following protein […]
(§5) concentrations were used: 100 nM for STAT1, 150 nM for STAT3, 30 nM for STAT4, 180 nM for STAT5a, 90 nM for STAT5b and 105 nM for STAT6. All peptides were used at a concentration of 10 nM. The following peptides were used: 5 -carboxyfluorescein -GpYDKPHVL for STAT1; 5-carboxyfluorescein -GpYLPQTV-NH2 for STAT3; 5-carboxyfluorescein-GpYLPQNID-OH for STAT4; 5-carboxyfluorescein-GpYLVLDKW for STAT5a/b, and 5-carboxyfluorescein-GpYVPWQDLI-OH for STAT6. As a buffer system, 10 mM Tris (pH 8.0), 50 mM NaCl, 1 mM EDTA, 1 mM DTT, 0.1 % Nonidet P-40 substitute, and 2 % DMSO in water was used. All compounds tested were incubated for 1 h with the protein. Subsequently, the fluorescein-labeled peptide was added and the fluorescence polarization was measured with an Infinite F500 plate reader (Tecan) after another hour. IC50 values were converted to Ki-values using the published equation.[2] […]
(§6) 3:2 solution was added . The solution was degassed by applying ultrasonic under vacuum for one minute four times. 14 mg of Pd(PPh3)4 (12 µmol, 5 mol %) were added and the solution was refluxed overnight. After cooling down, the mixture was extracted with ethyl acetate, washed with brine and dried over Na2SO4. The crude product was purified by flash column […]
(§7) Method 2: Synthesis of dibenzylphosphate esters
(§8) The corresponding phenol (1 eq.) was dissolved in 10 ml/mmol MeCN or DMF and CCl4 (5 eq.), DIPEA (2 eq.) and DMAP (0.1 eq.) were added. After cooling down to 0°C, dibenzyl phosphite (1.5 eq.) was added dropwise and stirring was continued at the same temperature. […]

STAT4 = molecular target: T2, STAT4 (Homo sapiens, UniProt Q14765); test: Fluorescence polarization (FP) binding assay, STAT4
T2 sequence (Q14765 1-748): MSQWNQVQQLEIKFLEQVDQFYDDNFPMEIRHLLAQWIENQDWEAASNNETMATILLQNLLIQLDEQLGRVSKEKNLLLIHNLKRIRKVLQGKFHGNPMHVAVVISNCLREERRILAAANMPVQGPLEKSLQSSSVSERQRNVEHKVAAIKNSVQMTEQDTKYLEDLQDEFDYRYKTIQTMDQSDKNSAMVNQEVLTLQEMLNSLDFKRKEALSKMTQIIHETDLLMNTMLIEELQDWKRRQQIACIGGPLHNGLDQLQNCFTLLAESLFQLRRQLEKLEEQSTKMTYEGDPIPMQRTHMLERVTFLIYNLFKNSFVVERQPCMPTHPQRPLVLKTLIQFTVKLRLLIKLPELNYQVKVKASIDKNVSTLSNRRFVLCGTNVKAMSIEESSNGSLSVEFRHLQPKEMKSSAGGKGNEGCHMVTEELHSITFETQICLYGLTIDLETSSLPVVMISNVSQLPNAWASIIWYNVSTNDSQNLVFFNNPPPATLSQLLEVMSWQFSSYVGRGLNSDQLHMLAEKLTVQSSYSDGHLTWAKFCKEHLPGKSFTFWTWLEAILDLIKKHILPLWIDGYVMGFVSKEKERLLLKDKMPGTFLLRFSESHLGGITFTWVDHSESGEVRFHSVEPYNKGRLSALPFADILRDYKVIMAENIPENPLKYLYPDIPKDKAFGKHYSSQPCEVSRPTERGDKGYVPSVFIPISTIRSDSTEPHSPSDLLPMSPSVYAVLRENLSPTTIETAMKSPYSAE
Protocol: as §1, §2, §3, §4, §5, §6, §7, §8

In the case of COc1cc(-c2cc(OP(=O)(O)O)cc(-c3cc(F)c(F)c(F)c3)c2)cc(OC)c1OC [6 b], the melting point is reported as over 260 °C, the inhibition at 200 µM (STAT6; read-out: STAT6 inhibition at 200 μM) is reported as 39 ± 1% and the Ki (STAT4) is reported as 39.7 ± 3 µM.

COc1cc(-c2cc(-c3cc(F)c(F)c(F)c3)cc(C(F)P(=O)(O)O)c2)cc(OC)c1OC (stereo not shown) [compound 12] showed an IC50 (STAT6; FP assay) of 144 ± 2.8 µM, a Ki (STAT6; FP assay, Ki calculated from IC50 (n=3)) of 71.5 ± 1.4 µM and an IC50 (STAT4; FP assay) of 99.3 ± 8 µM. It also gave a Ki (STAT4; FP assay, Ki calculated from IC50 (n=3), read-out: STAT4 Ki) of 49.2 ± 4 µM.
